US4822790A, “1-Sulfo-2-oxoazetidine derivatives and their production” (Takeda Chemical Industries, Ltd., priority 1980, dated 1989)

How the values were obtained:
Format in all cases: cell-based
[1] = test system: Staphylococcus aureus FDA209P; experiment: Antibacterial test (MIC), Staphylococcus aureus FDA209P
Description: (§1) The following is media and compounds employed in the antibacterial test.
(§2) TSA=Trypticase soy agar [Baltimore Biologicals (U.S.A.)]
(§3) B-TSA=Blood trypticase soy agar

[2] = test system: Staphylococcus aureus 308A-1; experiment: Antibacterial test (MIC), Staphylococcus aureus 308A-1; settings: medium TSA
Description: as §1, §2, §3

[3] = test system: Staphylococcus aureus 1840; experiment: Antibacterial test (MIC), Staphylococcus aureus 1840; settings: medium TSA
Description: as §1, §2, §3

[4] = test system: Escherichia coli NIHJ JC-2; experiment: Antibacterial test (MIC), Escherichia coli NIHJ JC-2; settings: medium TSA
Description: as §1, §2, §3

Escherichia coli 0-111 = experiment: Antibacterial test (MIC), Escherichia coli 0-111; settings: medium TSA
Description: as §1, §2, §3

Escherichia coli T-7 = experiment: Antibacterial test (MIC), Escherichia coli T-7; settings: medium TSA
Description: as §1, §2, §3

[5] = test system: Citrobacter freundii IFO 12681; experiment: Antibacterial test (MIC), Citrobacter freundii IFO 12681; settings: medium TSA
Description: as §1, §2, §3

Klebsiella pneumoniae DT = experiment: Antibacterial test (MIC), Klebsiella pneumoniae DT; settings: medium TSA
Description: as §1, §2, §3

[6] = test system: Enterobacter cloacae IFO 12937; experiment: Antibacterial test (MIC), Enterobacter cloacae IFO 12937; settings: medium TSA
Description: as §1, §2, §3

[7] = test system: Serratia marcescens IFO 12648; experiment: Antibacterial test (MIC), Serratia marcescens IFO 12648; settings: medium TSA
Description: as §1, §2, §3

[8] = test system: Proteus vulgaris IFO 3988; experiment: Antibacterial test (MIC), Proteus vulgaris IFO 3988; settings: medium TSA
Description: as §1, §2, §3

[9] = test system: Proteus mirabilis IFO 3849; experiment: Antibacterial test (MIC), Proteus mirabilis IFO 3849; settings: medium TSA
Description: as §1, §2, §3

[10] = test system: Proteus morganii IFO 3168; experiment: Antibacterial test (MIC), Proteus morganii IFO 3168; settings: medium TSA
Description: as §1, §2, §3

[11] = test system: Pseudomonas aeruginosa IFO 3455; experiment: Antibacterial test (MIC), Pseudomonas aeruginosa IFO 3455; settings: medium TSA
Description: as §1, §2, §3

[12] = test system: Pseudomonas aeruginosa U 31; experiment: Antibacterial test (MIC), Pseudomonas aeruginosa U 31; settings: medium TSA
Description: as §1, §2, §3

[13] = test system: Acinetobacter calcoaceticus IFO 13006; experiment: Antibacterial test (MIC), Acinetobacter calcoaceticus IFO 13006; settings: medium TSA
Description: as §1, §2, §3

Candida albicans TA = experiment: Antibacterial test (MIC), Candida albicans TA; settings: medium TSA
Description: as §1, §2, §3

[14] = test system: Streptococcus pyogenes E-14; experiment: Antibacterial test (MIC), Streptococcus pyogenes E-14; settings: medium B-TSA
Description: as §1, §2, §3

[15] = test system: Streptococcus pyogenes S-8; experiment: Antibacterial test (MIC), Streptococcus pyogenes S-8; settings: medium B-TSA
Description: as §1, §2, §3

[16] = test system: Streptococcus mitis America; experiment: Antibacterial test (MIC), Streptococcus mitis America; settings: medium B-TSA
Description: as §1, §2, §3

[17] = test system: Streptococcus faecium IFO 3128; experiment: Antibacterial test (MIC), Streptococcus faecium IFO 3128; settings: medium B-TSA
Description: as §1, §2, §3

[18] = test system: Streptococcus pneumoniae Type I; experiment: Antibacterial test (MIC), Streptococcus pneumoniae Type I; settings: medium B-TSA
Description: as §1, §2, §3

[19] = test system: Corynebacterium diphtheriae Toronto; experiment: Antibacterial test (MIC), Corynebacterium diphtheriae Toronto; settings: medium B-TSA
Description: as §1, §2, §3

[20] = test system: Bordetella bronchiseptica Sagami; experiment: Antibacterial test (MIC), Bordetella bronchiseptica Sagami; settings: medium B-TSA
Description: as §1, §2, §3

SMILES | Minimum inhibitory concentration (MIC) ([1]; medium B-TSA) | Minimum inhibitory concentration (MIC) ([1]; medium TSA) | Minimum inhibitory concentration (MIC) [2] | Minimum inhibitory concentration (MIC) [3] | Minimum inhibitory concentration (MIC) [4] | Minimum inhibitory concentration (MIC) (Escherichia coli 0-111) | Minimum inhibitory concentration (MIC) (Escherichia coli T-7) | Minimum inhibitory concentration (MIC) [5] | Minimum inhibitory concentration (MIC) (Klebsiella pneumoniae DT) | Minimum inhibitory concentration (MIC) [6] | Minimum inhibitory concentration (MIC) [7] | Minimum inhibitory concentration (MIC) [8] | Minimum inhibitory concentration (MIC) [9] | Minimum inhibitory concentration (MIC) [10] | Minimum inhibitory concentration (MIC) [11] | Minimum inhibitory concentration (MIC) [12] | Minimum inhibitory concentration (MIC) [13] | Minimum inhibitory concentration (MIC) (Candida albicans TA) | Minimum inhibitory concentration (MIC) [14] | Minimum inhibitory concentration (MIC) [15] | other results
CCN1CCN(C(=O)NC(C(=O)NC2CN(S(=O)(=O)[O-])C2=O)c2cccs2)C(=O)C1=O.[Na+] (racemic) [Compound E, Sodium 3-[DL-2-(4-ethyl-2,3-dioxo-1-piperazinocarboxamido)-2-thienylacetamido]-2-oxoazetidine-1-sulfonate] | 6.25 µg/mL | 6.25 µg/mL | 6.25 µg/mL | 25 µg/mL | 1.56 µg/mL | 0.2 µg/mL | > 100 µg/mL | 3.13 µg/mL | 0.78 µg/mL | 3.13 µg/mL | 3.13 µg/mL | < 0.1 µg/mL | 0.78 µg/mL | 12.5 µg/mL | 3.13 µg/mL | > 100 µg/mL | 50 µg/mL | > 100 µg/mL | 1.56 µg/mL | 3.13 µg/mL | Minimum inhibitory concentration (MIC) [16]: 25 µg/mL; Minimum inhibitory concentration (MIC) [17]: > 100 µg/mL; Minimum inhibitory concentration (MIC) [18]: 3.13 µg/mL; Minimum inhibitory concentration (MIC) [19]: 0.39 µg/mL; Minimum inhibitory concentration (MIC) [20]: > 100 µg/mL
O=C(NC1CN(S(=O)(=O)[O-])C1=O)C(NC(=O)N1CCN(N=Cc2ccco2)C1=O)c1cccs1.[Na+] (centres unmarked) [Compound L, Sodium 3-[2-[(2-oxo-3-furfurylideneaminoimidazolidin-1-yl)-carboxamido]-2-thienylacetamido]-2-oxoazetidine-1-sulfonate] | 6.25 µg/mL | 6.25 µg/mL | 3.13 µg/mL | 25 µg/mL | 1.56 µg/mL | < 0.1 µg/mL | > 100 µg/mL | 1.56 µg/mL | < 0.1 µg/mL | 25 µg/mL | 1.56 µg/mL | 0.2 µg/mL | 0.78 µg/mL | 12.5 µg/mL | 3.13 µg/mL | > 100 µg/mL | 50 µg/mL | > 100 µg/mL | 0.78 µg/mL | 0.78 µg/mL | Minimum inhibitory concentration (MIC) [16]: 6.25 µg/mL; Minimum inhibitory concentration (MIC) [17]: > 100 µg/mL; Minimum inhibitory concentration (MIC) [18]: 1.56 µg/mL; Minimum inhibitory concentration (MIC) [19]: 1.56 µg/mL; Minimum inhibitory concentration (MIC) [20]: > 100 µg/mL
